From patent EP3315028B1, “USE OF INHIBITORS OF NLP PROTEINS AS PHYTOPHARMACEUTICALS FOR PLANT PATHOGEN CONTROL” (Kemijski Institut, priority 2016, dated 2018)

Assays:
NLPPya [1] = biological target: T1, NLPPya (Pythium aphanidermatum, UniProt Q9SPD4); assay: Infiltration of NLPs into tobacco leaves in the presence of compounds (inhibition of necrosis); format: in vivo; conditions: compound at the final 1 mM concentration; NLPPya 250 nM; tobacco leaves (Figure 5)
Description: NLP proteins: NLPPya from the oomycete, Pythium aphanidermatum, was prepared in recombinant form by the use of heterologous expression system for protein production in Escherichia coli. NLPPp from oomycete Phytophthora parasitica was prepared in yeast Pichia pastoris. Proteins were purified with chromatographic procedures and stored in water solutions at -20 °C.
We have injected 50 µL of solution.

NLPPya [2] = biological target: T1, NLPPya; assay: Interactions of compounds with NLP proteins determined by surface plasmon resonance (NLPPya); format: binding; conditions: Biacore T100, CM5 chip, Steady State Affinity model; 50 mM MES, 140 mM NaCl, 5 % DMSO, pH 5,8; 25 °C; n=number of titrations
NLPPp = biological target: T2, NLPPp (Phytophthora nicotianae, UniProt Q9AT28); assay: Interactions of compounds with NLP proteins determined by surface plasmon resonance (NLPPp); format: binding, Phytophthora parasitica; conditions: Biacore T100, CM5 chip, Steady State Affinity model; 50 mM MES, 140 mM NaCl, 5 % DMSO, pH 5,8; 25 °C; n=number of titrations
T2 construct: made in house; host or cells: Pichia pastoris
T2 sequence (Q9AT28 20-237): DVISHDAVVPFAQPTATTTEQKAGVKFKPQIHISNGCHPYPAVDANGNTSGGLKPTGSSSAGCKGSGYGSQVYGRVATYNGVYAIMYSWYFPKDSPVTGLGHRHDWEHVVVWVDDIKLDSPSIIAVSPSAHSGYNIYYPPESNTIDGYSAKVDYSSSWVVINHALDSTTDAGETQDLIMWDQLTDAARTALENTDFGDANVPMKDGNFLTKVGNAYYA

T1 sequence (Q9SPD4 18-234 limits assumed): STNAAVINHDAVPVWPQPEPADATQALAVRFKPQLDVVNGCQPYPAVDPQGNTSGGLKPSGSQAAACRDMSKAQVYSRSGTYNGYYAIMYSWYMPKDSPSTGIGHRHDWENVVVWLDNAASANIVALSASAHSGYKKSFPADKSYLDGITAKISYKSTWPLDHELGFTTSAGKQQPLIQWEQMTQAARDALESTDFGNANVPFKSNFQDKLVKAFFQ

Compound	necrosis after infiltration of NLP proteins in the presence of compound (NLPPya [1])	Kd (NLPPya [2]) [µM]	Kd (NLPPp) [µM]
Cc1ccc2occ(C3NC(C(=O)O)CS3)c(=O)c2c1 (stereo not drawn) [Compound I, 2-(6-methyl-4-oxochromen-3-yl)-1,3-thiazolidin-3-ium-4-carboxylate]	Necrosis was not visible	–	–
COc1ccc(Nc2ccccc2C(=O)O)cc1 [Compound IIa, 2-[(4-methoxyphenyl)amino]benzoic acid]	Necrosis was not visible	131	71.9
Cc1ccc(Nc2ccccc2C(=O)O)cc1 [IIb, 2-[(4-methylphenyl)amino]benzoic acid]	–	98	83.2
O=C(O)c1ccccc1Nc1cccc(F)c1 [IIc, N-(3-Fluorophenyl)anthranilic acid]	–	77.3	62.4
Cc1ccc(C)c(Nc2c(C(=O)O)cc([N+](=O)[O-])cc2[N+](=O)[O-])c1 [IId, 2-[(2,5-dimethylphenyl)amino]-3,5-dinitrobenzoic acid]	–	–	39.7
